The values that follow come from patent US10596296B2, “Heparan sulphates” (Agency for Science, Technology and Research, priority 2014, dated 2020).

SMILES strings stand for the structures.

The assay has as its system chondrogenic differentiation of hMSCs. Nature of the assay: qPCR of day 3 chondrogenic micromass pellets (Example 1). The assay is classed as cell-based, human. The following applies: 3-day old pellets; SB431542 10 μM vs DMSO. Here is the method:
Chondrogenic differentiation was carried out using a modified micromass culture system as described by Zhang et al. (32). Briefly, passage 4 hMSCs were harvested and resuspended in chemically defined chondrogenic media (PT-3003, Lonza) at 2×10^7 cells/ml. Droplets of 12.5 μl were then seeded into the middle of each well in a 24-well plate and left to adhere at 37° C. for 2 h, after which, 500 μl of chondrogenic media supplemented with either 10 ng/ml of TGF-β1 (100-21C, PeproTech) alone (Media) or TGF-β1 with 10 μg/ml of heparin (Sigma-Aldrich) (Media+Hep) was added to each well. The cell droplets coalesced into spherical masses after 24 h and the micromasses harvested on day 3. Human MSCs were cultured in 6-well plates in basal media for 24 h at a density of 10,000 cells/cm^2. TGF-β1 treatments were then prepared at either 1 ng/ml or 5 ng/ml alone or in the presence of either 10 μg/ml or 40 μg/ml of full length heparin, or 1 ng/ml of TGF-β1 with 10 μg/ml size-fractionated or selectively desulfated heparin, HS^PM, HS16+ or HS16−, and incubated at room temperature for 10 min before being added to the cells. Latent TGF-β1 (LTGF-β1) treatments were similarly prepared at 3.3 ng/ml alone or with 10 μg/ml of the various GAGs described above. For inhibitor studies, the cells were pre-treated for 30 min with 10 μM SB431542 (Sigma-Aldrich) or DMSO before treatment with TGF-β1. The cells were then subjected to the various TGF-β1 treatments for 1, 6 or 24 h and lysed in 2× Laemmli buffer, before being resolved on a 4-12% SDS-PAGE gel. Samples were then immunoblotted with antibodies against SMAD2/3 (#3102, Cell Signaling), phosphorylated SMAD2 (pSMAD2, #3108, Cell Signaling), phosphorylated SMAD3 (pSMAD3, #9520, Cell Signaling) and actin (MAB1501R, Millipore). Densitometry was carried out using Quantity One software (version 4.6.6, Bio-Rad). Total RNA was isolated from chondrogenic micromass pellets using TRIZOL reagent (Invitrogen, Life Technologies) according to the manufacturer's protocol. Reverse transcription was carried out on 1 μg RNA using the SuperScript® VILO™ cDNA Synthesis Kit (Invitrogen, Life Technologies) following the manufacturer's instructions, with the incubation at 42° C. being carried out for 2 h instead of 1 h. Each qPCR contained 40 ng cDNA, 1 μl TaqMan® primer-probe mix per gene, and 10 μl Taqman® Fast Universal PCR Master Mix (Applied Biosystems, Life Technologies) in a final volume of 20 μl. Thermal cycling conditions were 95° C. for 20 s, followed by 45 cycles of 95° C. for 3 s and 60° C. for 30 s. Each qPCR was run in duplicate and gene expression was normalized to HPRT1 expression to obtain the ΔCt value. […] Relative expression levels for each primer set were expressed as fold changes by the 2^−ΔΔCt method (36). […]

On to `NC(=O)c1ccc(-c2nc(-c3ccc4c(c3)OCO4)c(-c3ccccn3)[nH]2)cc1` [SB431542], for which the COMP gene expression result was “reduction” and the SOX9 gene expression result is reported as “reduction”.
